Measured values from patent US8466273B2, “Hepatitis C virus inhibitors” (priority 2008, dated 2013).

How the values were obtained:
[1] = system: HCV replication in R6FLR-N cells; experiment: HCV replication activity by luciferase assay in R6FLR-N replicon cells; format: cell-based, Hepatitis C virus (genotype 1b); settings: for replication of HCV (luminescence relative to control siRNA group defined as 100%): 4.2 nM siRNA, 72 hours post-treatment; for minimal effective concentration showing a significant inhibitory effect against HCV replication vs. the control siRNAs: data not shown
Source text: The inhibitory effect against HCV replication can be determined by using HCV replicon cells (Lohmann et al., Science, 1999, 285 (5424):110-113). HCV replicon cells bear a luciferase gene as an indicator gene fused to a nonstructural protein (NS) region necessary for the replication of HCV. HCV replication activity can be measured by luciferase assays. Viral inhibitory activity can also be evaluated by using HCV infection systems (Wakita et al., Nat. Med. 2005, 11 (7), 791-796).
In this study, HCV-replicating cells (FLR3-1 and R6FLR-N) established from Huh-7 replicon cells (Lohmann et al., Science, 1999, 285 (5424):110-3) containing a luciferase-neo fusion gene and three HCV nonstructural protein regions (NS3-NS5b) after G418 selection were used. The use of these cells allows HCV replication activity to be measured by a luciferase assay. The HCV-replicating cells (FLR3-1 or R6FLR-N) were reverted by treatment with interferon α (100 IU/ml) for 72 hours or more to lower the HCV replication level and used as control cells (see Guo J T, Bichko V V, Seeger C., J. Virol. 2001, 75 (18):8516-23). The cells were incubated in Dulbecco's modified Eagle's medium (DMEM) GlutaMax I containing penicillin (100 U/ml), streptomycin (100 μg/ml), G418 (500 μg/ml), and 10% FCS (SIGMA).
The reverse transfection of the siRNAs was performed as follows. In each well of a 96-well plate (Falcon) containing Opti-MEM I medium was added each siRNA at a final concentration of 4.2, 12.6, and 25.2 nM and the plate was gently shaken. Lipofectamine™ RNAiMAX was mixed before use and added to the well (0.1 μl/well), and the plate was gently shaken and allowed to stand for 10-20 minutes at room temperature. R6FLR-N cells were plated at a density of 5×10^3 cells/well and incubated at 37° C. in 5% CO2 for 5 hours. The culture medium was replaced with 10% DMEM-Glutamax, and the cells were further incubated at 37° C. in 5% CO2. A plate containing the medium and Lipofectamine alone without siRNA (“Lipo”) and a plate containing the medium alone (“No”) were used as controls.
After incubation for 24, 48, and 72 hours, the HCV replication activity was measured by a luciferase assay. The replication activity is expressed relative to the luminescence intensity in the groups treated with the control siRNAs (“Ctrl”) defined as 100%. The experiment was performed in triplicate, and the average±S.D. was graphically shown. Statistical analysis was performed by Student's t-test.
FLR3-1 cells and R6FLR-N cells were incubated with a rabbit anti-BGT-1 polyclonal antibody (abcam) or a mouse anti-AKR1C1 polyclonal antibody (Abnova) for 72 hours. After incubation, the relative luminescence unit (RLU) was measured by a luciferase assay to evaluate the inhibitory activity against HCV replication. Normal rabbit serum was used as a control of the anti-BGT-1 antibody, and normal mouse serum was used as a control of the anti-AKR1C1 antibody. Each antibody was diluted at 1:100-1:10000 in 3% BSA/PBS. The experiment was performed in triplicate, and the average±S.D. was graphically shown. Statistical analysis was performed by Student's t-test.
R6FLR-N cells were also incubated with another BGT-1 inhibitor NNC05-2090 for 24-72 hours, and then analyzed by a luciferase assay in the same manner. NNC05-2090 was dissolved in DMSO at a final concentration of 0.1-10 μM (FIG. 7).

[2] = system: R6FLR-N cells; experiment: Cytotoxic activity against HCV-replicating cells (Cell Counting Kit-8 / WST), R6FLR-N; format: cell-based
Protocol: In the same manner as described above, the siRNA were reversely transfected into R6FLR-N cells in a 96-well plate (Falcon). After incubation for 24, 48, and 72 hours, the number of viable cells was counted by a chromogenic reaction at 37° C. for 1 hour using Cell Counting Kit-8 (DOJINDO) following the manufacturer's protocol. The results are expressed relative to the cell survival rate in the groups treated with the control siRNAs defined as 100%. The experiment was performed in triplicate, and the average±S.D. was graphically shown. Statistical analysis was performed by Student's t-test.
FLR3-1 cells and R6FLR-N cells were incubated with the rabbit anti-BGT-1 polyclonal antibody or mouse anti-AKR1C1 polyclonal antibody described above for 72 hours. After incubation, the OD450/650 was measured by a chromogenic reaction at 37° C. for 1 hour using Cell Counting Kit-8 (DOJINDO) following the manufacturer's protocol. Normal rabbit serum was used as a control of the anti-BGT-1 antibody, and normal mouse serum was used as a control of the anti-AKR1C1 antibody. Each antibody was diluted at 1:100-1:10000 in 3% BSA/PBS. The experiment was performed in triplicate, and the average±S.D. was graphically shown. Statistical analysis was performed by Student's t-test.
(§1) In the same manner as described above, the cytotoxic activity of tiagabine (1 mM), NNC05-2090 (0.1-10 μM), and flufenamic acid (1 μM-1 mM) against HCV-replicating cells was evaluated by the WST assay. The experiment was performed in triplicate, and the average±S.D. was graphically shown. Statistical analysis was performed by Student's t-test.

[3] = system: FLR3-1, R6FLR-N and JFH1 cells; experiment: Cytotoxic activity of inhibitors by WST assay in FLR3-1, R6FLR-N and JFH1 cells; format: cell-based
Protocol: HCV-replicating cells were incubated with a BGT-1 inhibitor tiagabine or an AKR1C1 inhibitor flufenamic acid, and the inhibitory effect against HCV replication was evaluated by a luciferase assay. Tiagabine was dissolved in sterile distilled water at a final concentration of 1 mM, and flufenamic acid was dissolved in 1% EtOH at a final concentration of 1 μM-1 mM. The assay was performed after a reaction period of 24 hours in expectation of the rapid action of the inhibitors. The HCV-replicating cells used were FLR3-1, R6FLR-N (both genotype 1b) and JFH1 (genotype 2a: Kato et al., Gastroenterology, 2003, 125 (6):1808-17). The cells incubated in the medium alone were used as “controls”. The experiment was performed in triplicate, and the average±S.D. was graphically shown. Statistical analysis was performed by Student's t-test.
as §1

[4] = system: AKR1C1 gene; experiment: Inhibition of AKR1C1 gene expression by siRNA, RT-PCR; format: cell-based, Homo sapiens; settings: data not shown
Protocol: (§2) The expression of BGT-1 and AKR1C1 and the inhibition of the expression by their siRNAs were analyzed by Western blotting and PCR.
(§3) The inhibition of the expression of the BGT-1 gene and the AKR1C1 gene by their siRNAs was also verified by RT-PCR using the following primers (data not shown): […]

[5] = system: BGT-1 gene; experiment: Inhibition of BGT-1 gene expression by siRNA, RT-PCR; format: cell-based, Homo sapiens; settings: data not shown
Protocol: as §2, §3

COc1ccccc1C1(O)CCN(CCCn2c3ccccc3c3ccccc32)CC1 [NNC05-2090, 1-(3-(9H-carbazol-9-yl)-1-propyl)-4-(2-methoxyphenyl)-4-piperidinol, reference compound]
RLU vs. the vehicle group (DMSO) ([1]; 10 μM, 24 hours, R6FLR-N cells): 30%
OD value as % of the vehicle group (WST assay) ([2]; 3 μM, 48 hours post-treatment): about 26%
OD value as % of the vehicle group (WST assay) ([2]; 10 μM, 24 hours post-treatment): about 23%

O=C(O)c1ccccc1Nc1cccc(C(F)(F)F)c1 [flufenamic acid]
OD value as % of the value of the 0 μM group (WST assay) ([3]; 100 μM, all types of HCV-replicating cells): ≤ 80%

Cc1ccsc1C(=CCCN1CCC[C@@H](C(=O)O)C1)c1sccc1C [tiagabine]
cytotoxic activity against HCV-replicating cells (WST assay) ([3]; 1 mM, 24 hours, FLR3-1, R6FLR-N, JFH1 cells): significantly injured HCV-replicating cells in only FLR3-1 cells

siRNA of AKR1C1: siRNA of the AKR1C1 gene, 5′-AAGUAAAGCUUUAGAGGCCACCAAA-3′, nucleotides 93-117 (chemistry not given here)
replication of HCV (luminescence relative to control siRNA group defined as 100%) ([1]; R6FLR-N cells): 40±1%
minimal effective concentration showing a significant inhibitory effect against HCV replication vs. the control siRNAs [1]: 0.5 nM
cell survival rate (relative to control siRNA group defined as 100%) ([2]; 4.2 nM siRNA, 72 hours post-treatment): 53±18%
inhibition of the expression of the AKR1C1 gene by RT-PCR [4]: verified

siRNA of BGT-1: siRNA of the BGT-1 gene, 5′-CAACAAGAUGGAGUUUGUGCUGUCA-3′, nucleotides 120-144 (chemistry not given here)
replication of HCV (luminescence relative to control siRNA group defined as 100%) ([1]; R6FLR-N cells): ≤ 10±4%
minimal effective concentration showing a significant inhibitory effect against HCV replication vs. the control siRNAs [1]: 0.5 nM
cytotoxic activity against HCV-replicating cells ([2]; any siRNA concentration tested (4.2, 12.6, 25.2 nM)): any significant cytotoxic activity was not detected
inhibition of the expression of the BGT-1 gene by RT-PCR [5]: verified
